These results are taken from PubChem BioAssay AID256 (DTP/NCI, 2004).

“And” between values parts separate entries of the source, which are not always exact repeats. Equal entries are not always repeated. Toxic doses and inconclusive results are not listed.

The subject of this assay is CD2F1 mice, L1210 leukemia ip, survival T/C. The experiment in a line: NCI In Vivo Anticancer Drug Screen. Data for tumor model L1210 Leukemia (intraperitoneal) in CD2F1 (CDF1) mice. The settings on record: higher = longer survival. The gist of the method: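 Read-out first: treated-group measurement over vehicle-control measurement, expressed as a ratio. Animals bore a transplanted tumor line and were dosed with compound or vehicle.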

[1] abbreviates: endpoint: mean survival time, dose: 100.0 mg/kg/injection, schedule: Q01DX001 (ip), vehicle: saline.
The mark [2] stands for this setting: endpoint: mean survival time, dose: 200.0 mg/kg/injection, schedule: Q01DX001 (ip), vehicle: saline.
Setting [3] is: endpoint: mean survival time, dose: 100.0 mg/kg/injection, schedule: Q01DX001 (ip), vehicle: saline with Tween-80.
The mark [4] stands for this setting: endpoint: mean survival time, dose: 200.0 mg/kg/injection, schedule: Q01DX001 (ip), vehicle: saline with Tween-80.
Where [5] appears, read: endpoint: mean survival time, dose: 100.0 mg/kg/injection, schedule: Q01DX009 (ip), vehicle: saline with Tween-80.
Setting [6] is: endpoint: mean survival time, dose: 200.0 mg/kg/injection, schedule: Q01DX009 (ip), vehicle: saline with Tween-80.
[7] abbreviates: endpoint: mean survival time, dose: 400.0 mg/kg/injection, schedule: Q01DX009 (ip), vehicle: saline with Tween-80.
Where [8] appears, read: endpoint: mean survival time, dose: 100.0 mg/kg/injection, schedule: Q04DX003 (ip), vehicle: saline with Tween-80.
The mark [9] stands for this setting: endpoint: mean survival time, dose: 200.0 mg/kg/injection, schedule: Q04DX003 (ip), vehicle: saline with Tween-80.
Setting [10] is: endpoint: mean survival time, dose: 400.0 mg/kg/injection, schedule: Q04DX003 (ip), vehicle: saline with Tween-80.
The mark [11] stands for this setting: endpoint: mean survival time, dose: 50.0 mg/kg/injection, schedule: Q01DX009 (ip), vehicle: saline with Tween-80.
[12] abbreviates: endpoint: mean survival time, dose: 25.0 mg/kg/injection, schedule: Q01DX009 (ip), vehicle: saline with Tween-80.
Where [13] appears, read: endpoint: mean survival time, dose: 400.0 mg/kg/injection, schedule: Q01DX001 (ip), vehicle: saline with Tween-80.

Consider `CC([O-])C(=O)[O-].NCC1CCC1CN.[Pt+4]` (stereo not given), for which the T/C is, setting by setting: (endpoint: median survival time, dose: 0.78 mg/kg/injection, schedule: Q04DX003 (ip), vehicle: saline) 114 % of control; (endpoint: median survival time, dose: 1.56 mg/kg/injection, schedule: Q04DX003 (ip), vehicle: saline) 120 % of control; (endpoint: median survival time, dose: 3.12 mg/kg/injection, schedule: Q04DX003 (ip), vehicle: saline) 156 % of control; (endpoint: median survival time, dose: 6.25 mg/kg/injection, schedule: Q04DX003 (ip), vehicle: saline) 156 % of control; (endpoint: median survival time, dose: 12.5 mg/kg/injection, schedule: Q04DX003 (ip), vehicle: saline) 192 % of control and 341 % of control; (endpoint: median survival time, dose: 25.0 mg/kg/injection, schedule: Q04DX003 (ip), vehicle: saline) 168 % of control and 223 % of control.

For the compound `COC(=O)CC(CC(=O)OC)N1CCCC1`, the T/C by setting is: under setting [1], 102 % of control; under setting [2], 102 % of control; (endpoint: mean survival time, dose: 400.0 mg/kg/injection, schedule: Q01DX001 (ip), vehicle: saline) 102 % of control.

Regarding `CCOc1ccc(-n2c(O)c(N=Nc3ccccc3)c(=O)n(-c3ccccc3)c2=S)cc1`, the T/C under setting [3] was 92 % of control and the T/C under setting [4] was 102 % of control.

For `CC(=O)CCC(C)=O`, the T/C was 100 % of control under setting [5]; 97 % of control (endpoint: mean survival time, dose: 100.0 mg/kg/injection, schedule: Q04DX003 (ip), vehicle: saline); 109 % of control under setting [6]; 100 % of control (endpoint: mean survival time, dose: 200.0 mg/kg/injection, schedule: Q04DX003 (ip), vehicle: saline); 100 % of control under setting [7]; 94 % of control (endpoint: mean survival time, dose: 400.0 mg/kg/injection, schedule: Q04DX003 (ip), vehicle: saline).

On to `Nc1ncnc2c1ncn2CCCN1C(=O)c2ccccc2C1=O`, for which the T/C was 93 % of control under setting [5], 95 % of control under setting [6] and 101 % of control under setting [7].

Consider `CCOC(=S)SCCSC`, for which the T/C under setting [1] was 103 % of control and the T/C under setting [2] was 98 % of control.

Regarding `CCOC(=O)C(C(C)=O)C(=O)c1ccc([N+](=O)[O-])cc1` (stereo not given), the T/C was 102 % of control under setting [5]; 100 % of control under setting [8]; 101 % of control under setting [6]; 102 % of control under setting [9]; 98 % of control under setting [7]; 100 % of control under setting [10].

For the compound `OCC(O)C(O)C(OC1OC(CO)C(O)C(O)C1O)C(O)CO` (stereo not given), the T/C under setting [11] is 97 % of control, the T/C under setting [5] is 109 % of control and the T/C under setting [6] is 106 % of control.

In the case of `O=C(CC(=Nc1ccccc1)c1ccccc1)c1ccccc1.O=C(CC(=Nc1ccccc1)c1ccccc1)c1ccccc1.[Cu]`, the T/C (endpoint: mean survival time, dose: 12.5 mg/kg/injection, schedule: Q01DX009 (ip), vehicle: saline with Tween-80) was 98 % of control and the T/C under setting [12] was 93 % of control.

Consider `CCN(CC)C1=C(c2ccccc2)C(=O)C(=O)C1c1ccccc1` (stereo not given), for which the T/C runs as follows: under setting [3], 103 % of control; under setting [4], 107 % of control; under setting [13], 94 % of control.

For `O=C(c1ccccc1[N+](=O)[O-])C(Br)C(Br)c1ccc(Cl)c(Cl)c1` (stereo not given), the T/C is 87 % of control and 94 % of control under setting [12]; 100 % of control under setting [11]; 90 % of control (endpoint: mean survival time, dose: 50.0 mg/kg/injection, schedule: Q04DX003 (ip), vehicle: saline with Tween-80); 107 % of control under setting [3]; 89 % of control and 100 % of control (endpoint: mean survival time, dose: 100.0 mg/kg/injection, schedule: Q04DX002 (ip), vehicle: saline with Tween-80); 87 % of control under setting [8]. In addition, the T/C by setting is: under setting [4], 95 % of control; (endpoint: mean survival time, dose: 200.0 mg/kg/injection, schedule: Q04DX002 (ip), vehicle: saline with Tween-80) 86 % of control and 96 % of control; under setting [9], 90 % of control; (endpoint: mean survival time, dose: 400.0 mg/kg/injection, schedule: Q04DX002 (ip), vehicle: saline with Tween-80) 86 % of control and 90 % of control.

As to `O=C(OC12CCCC1CC2)c1ccc([N+](=O)[O-])cc1` (stereo not given), the T/C under setting [5] was 97 % of control and the T/C under setting [6] is 95 % of control.

For `Cc1cc2nc(C(=C(c3nc4cc(C)c(C)cc4[nH]3)c3nc4cc(C)c(C)cc4[nH]3)c3nc4cc(C)c(C)cc4[nH]3)[nH]c2cc1C`, the T/C by setting is: under setting [8], 97 % of control; under setting [9], 94 % of control; under setting [10], 89 % of control.

As for `O=C(O)CC/C(=N\O)c1cccc([N+](=O)[O-])c1`, the T/C reads like this: under setting [8], 102 % of control; under setting [9], 102 % of control; under setting [10], 98 % of control.

In the case of `O=C(NCc1ccccc1)C1C2CCC(C2)C1C(=O)NCc1ccccc1` (stereo not given), the T/C was 102 % of control under setting [8], 102 % of control under setting [9] and 98 % of control under setting [10].

With `CSc1ncnc2c1ccn2C1OC(CO)C(O)C1O` (stereo not given), the T/C is 106 % of control (endpoint: median survival time, dose: 12.5 mg/kg/injection, schedule: Q01DX005 (ip), vehicle: saline); 105 % of control (endpoint: median survival time, dose: 25.0 mg/kg/injection, schedule: Q01DX005 (ip), vehicle: saline); 102 % of control (endpoint: median survival time, dose: 50.0 mg/kg/injection, schedule: Q01DX005 (ip), vehicle: saline); 103 % of control (endpoint: median survival time, dose: 100.0 mg/kg/injection, schedule: Q01DX005 (ip), vehicle: saline); 94 % of control (endpoint: median survival time, dose: 200.0 mg/kg/injection, schedule: Q01DX005 (ip), vehicle: saline).

In the case of `O=c1cc(O)cnn1C1OC(CO)C(O)C1O` (stereo not given), the T/C is 118 % of control and 110 % of control (endpoint: mean survival time, dose: 25.0 mg/kg/injection, schedule: Q01DX009 (ip), vehicle: water); 114 % of control and 117 % of control and 112 % of control (endpoint: mean survival time, dose: 50.0 mg/kg/injection, schedule: Q01DX009 (ip), vehicle: water); 118 % of control (2×) and 108 % of control (endpoint: mean survival time, dose: 100.0 mg/kg/injection, schedule: Q01DX009 (ip), vehicle: water); 117 % of control and 108 % of control (endpoint: mean survival time, dose: 200.0 mg/kg/injection, schedule: Q01DX009 (ip), vehicle: water); 119 % of control (endpoint: mean survival time, dose: 400.0 mg/kg/injection, schedule: Q01DX009 (ip), vehicle: water).

For the compound `O=C1c2ccccc2CCC1(Br)Cc1ccccc1` (stereo not given), the T/C is 98 % of control under setting [3], 96 % of control under setting [4] and 94 % of control under setting [13].
